According to US20240199649A1 (Biosplice Therapeutics, Inc., priority 2022, published 2024):

Target: recombinant DYRK1A kinase (Homo sapiens (Human), UniProt Q13627)
Assay: DYRK1A kinase assay (Ser/Thr 18 peptide Z-lyte FRET assay)
Format: biochemical
Conditions: DYRK1A 0.25 μg/mL, ATP 15 μM, Ser/Thr peptide 18 4 μM; one hour at room temperature; 11-point dose-response, duplicate
Method in brief: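 Z-lyte FRET assay on Ser/Thr 18 peptide, kinase activity read as coumarin/fluorescein emission ratio; compounds incubated 1 h at room temperature, then development reagent 1 h, in duplicate. Phosphorylated and unphosphorylated peptide served as controls; IC50 by non-linear regression of dose-response curves.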

IC50 | SMILES
9.2 nM | CC(=O)N1CC[C@@H](Nc2nc(N)c3c(-c4ccc5nc(C)n(CCF)c5n4)ccn3n2)C(F)(F)C1 [Compound 998, (R)-1-(4-((4-Amino-5-(3-(2-fluoroethyl)-2-methyl-3H-imidazo[4,5-b]pyridin-5-yl)pyrrolo[2,1-f][1,2,4]triazin-2-yl)amino)-3,3-difluoropiperidin-1-yl)ethan-1-one]
1.8 nM | Cc1nc2ccc(-c3ccn4nc(N[C@@H]5CCN(C6COC6)CC5(F)F)nc(N)c34)nc2n1CCF [Compound 999, (R)—N^2-(3,3-Difluoro-1-(oxetan-3-yl)piperidin-4-yl)-5-(3-(2-fluoroethyl)-2-methyl-3H-imidazo[4,5-b]pyridin-5-yl)pyrrolo[2,1-f][1,2,4]triazine-2,4-diamine]
5.1 nM | Nc1nc(N[C@H]2CC[C@@H](OC(F)F)CC2)nn2ccc(-c3ccc4nnn(CC(F)F)c4n3)c12 [Compound 1000, 5-(3-(2,2-Difluoroethyl)-3H-[1,2,3]triazolo[4,5-b]pyridin-5-yl)-N^2-(cis-4-(difluoromethoxy)cyclohexyl)pyrrolo[2,1-f][1,2,4]triazine-2,4-diamine]
2.2 nM | CNc1nc(NC2CCC(F)(F)CC2)nn2ccc(-c3ccc4ncn(CCF)c4n3)c12 [Compound 1001, N^2-(4,4-Difluorocyclohexyl)-5-(3-(2-fluoroethyl)-3H-imidazo[4,5-b]pyridin-5-yl)-N^4-methylpyrrolo[2,1-f][1,2,4]triazine-2,4-diamine]
1.1 nM | CNc1nc(N[C@H]2CCN(C(C)=O)C[C@H]2F)nn2ccc(-c3ccc4ncn(CCF)c4n3)c12 [Compound 1002, 1-((3R,4S)-3-Fluoro-4-((5-(3-(2-fluoroethyl)-3H-imidazo[4,5-b]pyridin-5-yl)-4-(methylamino)pyrrolo[2,1-f][1,2,4]triazin-2-yl)amino)piperidin-1-yl)ethan-1-one]
1.1 nM | CNc1nc(N[C@H]2CCN(C3COC3)C[C@H]2F)nn2ccc(-c3ccc4ncn(CCF)c4n3)c12 [Compound 1003, N^2-((3R,4S)-3-Fluoro-1-(oxetan-3-yl)piperidin-4-yl)-5-(3-(2-fluoroethyl)-3H-imidazo[4,5-b]pyridin-5-yl)-N4-methylpyrrolo[2,1-f][1,2,4]triazine-2,4-diamine]
1.1 nM | CNc1nc(N[C@@H]2CCN(C)CC2(F)F)nn2ccc(-c3ccc4ncn(CCF)c4n3)c12 [Compound 1004, (R)—N^2-(3,3-Difluoro-1-methylpiperidin-4-yl)-5-(3-(2-fluoroethyl)-3H-imidazo[4,5-b]pyridin-5-yl)-N^4-methylpyrrolo[2,1-f][1,2,4]triazine-2,4-diamine]
0.9 nM | CNc1nc(N[C@@H]2CCN(C3COC3)CC2(F)F)nn2ccc(-c3ccc4ncn(CCF)c4n3)c12 [Compound 1005, (R)—N^2-(3,3-Difluoro-1-(oxetan-3-yl)piperidin-4-yl)-5-(3-(2-fluoroethyl)-3H-imidazo[4,5-b]pyridin-5-yl)-N^4-methylpyrrolo[2,1-f][1,2,4]triazine-2,4-diamine]
4.1 nM | CNc1nc(NC2CCC(F)(F)CC2)nn2ccc(-c3ccc4ncn(CC(F)F)c4n3)c12 [Compound 1007, N^2-(4,4-Difluorocyclohexyl)-5-(3-(2,2-difluoroethyl)-3H-imidazo[4,5-b]pyridin-5-yl)-N^4-methylpyrrolo[2,1-f][1,2,4]triazine-2,4-diamine]
0.4 nM | CNc1nc(N[C@H]2CC[C@@](C)(O)CC2)nn2ccc(-c3ccc4ncn(CC(F)F)c4n3)c12 [Compound 1008, (1r,4r)-4-((5-(3-(2,2-Difluoroethyl)-3H-imidazo[4,5-b]pyridin-5-yl)-4-(methylamino)pyrrolo[2,1-f][1,2,4]triazin-2-yl)amino)-1-methylcyclohexan-1-ol]
2 nM | CNc1nc(N[C@H]2CCN(C3COC3)C[C@H]2F)nn2ccc(-c3ccc4ncn(CC(F)F)c4n3)c12 [Compound 1009, 5-(3-(2,2-Difluoroethyl)-3H-imidazo[4,5-b]pyridin-5-yl)-N^2-((3R,4S)-3-fluoro-1-(oxetan-3-yl)piperidin-4-yl)-N4-methylpyrrolo[2,1-f][1,2,4]triazine-2,4-diamine]
0.5 nM | CNc1nc(N[C@@H]2CCN(C(C)=O)CC2(F)F)nn2ccc(-c3ccc4ncn(CC(F)F)c4n3)c12 [Compound 1010, (R)-1-(4-((5-(3-(2,2-Difluoroethyl)-3H-imidazo[4,5-b]pyridin-5-yl)-4-(methylamino)pyrrolo[2,1-f][1,2,4]triazin-2-yl)amino)-3,3-difluoropiperidin-1-yl)ethan-1-one]
1.4 nM | CNc1nc(N[C@@H]2CCN(C)CC2(F)F)nn2ccc(-c3ccc4ncn(CC(F)F)c4n3)c12 [Compound 1011, (R)—N^2-(3,3-Difluoro-1-methylpiperidin-4-yl)-5-(3-(2,2-difluoroethyl)-3H-imidazo[4,5-b]pyridin-5-yl)-N^4-methylpyrrolo[2,1-f][1,2,4]triazine-2,4-diamine]
0.5 nM | CNc1nc(N[C@H]2CCN(C(C)=O)C[C@H]2F)nn2ccc(-c3ccc4ncn(CC(F)F)c4n3)c12 [Compound 1012, 1-((3R,4S)-4-((5-(3-(2,2-Difluoroethyl)-3H-imidazo[4,5-b]pyridin-5-yl)-4-(methylamino)pyrrolo[2,1-f][1,2,4]triazin-2-yl)amino)-3-fluoropiperidin-1-yl)ethan-1-one]
0.9 nM | CNc1nc(N[C@@H]2CCN(C3COC3)CC2(F)F)nn2ccc(-c3ccc4ncn(CC(F)F)c4n3)c12 [Compound 1013, (R)—N^2-(3,3-Difluoro-1-(oxetan-3-yl)piperidin-4-yl)-5-(3-(2,2-difluoroethyl)-3H-imidazo[4,5-b]pyridin-5-yl)-N4-methylpyrrolo[2,1-f][1,2,4]triazine-2,4-diamine]
10.1 nM | CNc1nc(NC2CCC(F)(F)CC2)nn2ccc(-c3ccc4ncn(CC(F)(F)F)c4n3)c12 [Compound 1014, N^2-(4,4-Difluorocyclohexyl)-N^4-methyl-5-(3-(2,2,2-trifluoroethyl)-3H-imidazo[4,5-b]pyridin-5-yl)pyrrolo[2,1-f][1,2,4]triazine-2,4-diamine]
1.4 nM | CNc1nc(N[C@H]2CCN(C(C)=O)C[C@H]2F)nn2ccc(-c3ccc4ncn(CC(F)(F)F)c4n3)c12 [Compound 1015, 1-((3R,4S)-3-Fluoro-4-((4-(methylamino)-5-(3-(2,2,2-trifluoroethyl)-3H-imidazo[4,5-b]pyridin-5-yl)pyrrolo[2,1-f][1,2,4]triazin-2-yl)amino)piperidin-1-yl)ethan-1-one]
1.5 nM | CNc1nc(N[C@H]2CCN(C3COC3)C[C@H]2F)nn2ccc(-c3ccc4ncn(CC(F)(F)F)c4n3)c12 [Compound 1016, N^2-((3R,4S)-3-Fluoro-1-(oxetan-3-yl)piperidin-4-yl)-N^4-methyl-5-(3-(2,2,2-trifluoroethyl)-3H-imidazo[4,5-b]pyridin-5-yl)pyrrolo[2,1-f][1,2,4]triazine-2,4-diamine]
1.7 nM | CNc1nc(N[C@@H]2CCN(C)CC2(F)F)nn2ccc(-c3ccc4ncn(CC(F)(F)F)c4n3)c12 [Compound 1017, (R)—N^2-(3,3-Difluoro-1-methylpiperidin-4-yl)-N^4-methyl-5-(3-(2,2,2-trifluoroethyl)-3H-imidazo[4,5-b]pyridin-5-yl)pyrrolo[2,1-f][1,2,4]triazine-2,4-diamine]
